Test results taken from US8507481B2, “Benzoxazine oxazolidinone compounds, preparation methods and uses thereof” (Shanghai Institute of Materia Medica, Chinese Academy of …, priority 2010, dated 2013).
≈ marks a conversion by molar mass, not a printed value. Where “and” joins values, the source holds several entries; their conditions need not be identical. Identical values can stand only once. Like-named read-outs stand apart in the source and are kept apart here.

Assays:
[1] = test system: methicillin-resistant Staphylococcus aureus (MRSA); assay: In vivo antibacterial activity in mice infected with MRSA; design: species or system Kunming mice; conditions: for ED50: Staphylococcus aureus
Text: Experimental strains: the bacteria used for infecting animals was methicillin-resistant Staphylococcus aureus (MRSA), which was clinically isolated pathogenic bacteria collected in Nanjing area in 2009, and re-identified by the API method.
Experimental animals: Healthy Kunming mice of SPF grade and weighing 18-22 g were chosen, and male and female were 50% each, and they were supplied by animal breeding office of Pharmacology Laboratory, China Pharmaceutical University.
Test method of infection and treatment: The experimental animals were evenly grouped by sex and weight, each group had 10 mice, including 50% of male and female, respectively. Intraperitoneal injection of bacteria solution was performed among animals at 0.5 mL/animal. One hour after infection, the tested drug solution (Compound 7 of the present invention and the positive control drug LZ) of different concentrations were given to each animal by oral gavage or intravenous injection at 0.5 mL/20 g, respectively. For mice receiving oral gavage, another gavage was given 4 hours after the first dose, observation was performed after administration, and death was recorded. An infected control group was set up for the same group, and the number of the deaths within seven days after infection was recorded.
Experimental data processing: median effective dose ED50 and 95% confidence limits were calculated by Bliss for in vivo protective effect of each tested drug among mice infected with tested strain.

[2] = In vivo pharmacokinetic trial in rat (gavage and intravenous injection); design: species or system SD male rats
Description: The tested compound was Compound 7, using two administration routes (gavage and intravenous injection).
(§1) Gavage: four healthy SD male rats weighing 200-250 g were given a dose of 15 mg/kg, with an administered volume of 10 mL/kg. And the compound was prepared as 0.5% CMC—Na. The animals were fasted for 12 hours and had free access to water before administration, 0.3 mL of venous blood was sampled through retrobulbar venous plexus at 0.25, 0.5, 1, 0, 2.0, 3.0, 4.0, 5.0, 7.0, 9.0, 24, and 48 hours after administration and collected in heparinized test tubes, which is subjected to centrifugation at 3500 rpm for 10 min to separate the plasma, and stored at −20° C. for testing.
as §1, with “Intravenous injection: two” for “Gavage: four”, “using DMSO, Tween 80 and deionized water.” for “as 0.5% CMC—Na.”, “5 min, 15 min,” for “0.25,”, “1.0,” for “1, 0,”
Concentration of Compound 7 in plasma was determined using liquid chromatography-tandem mass spectrometry.

[3] = test system: Pneumococcus drug-resistant strain (4 strains); assay: MIC by agar dilution, pneumococcus drug-resistant strains; assay type: cell-based; design: unit not given here; conditions: 35° C., 16 hours
Description: (§2) Test method: minimal inhibitory concentration (MIC) of series of compounds of the present invention and the positive control drug linezo lid against the tested strains was determined using agar dilution method (Antimicrob. Agents and Chemother., 40, 1996. 720-726). The bacteria was inoculated on the surface of agar plates with different drug concentrations using a multi-point inoculation instrument (Denley A400). Inoculum of each point was about 10^6 CFU/mL, and inoculation was performed at 35° C. for 16 hours to get observation. The minimal concentration of a drug contained in the plate medium without bacteria growth was considered as the minimal inhibitory concentration (MIC value) of the drug against bacteria.
(§3) Tested strains: the tested strains were clinically isolated pathogenic bacteria collected in the Nanjing area, and re-identified by conventional methods before use. 31 pathogenic bacteria are selected, and strain serial numbers were as following: six enterococci; five Staphylococcus aureus sensitive strains; five Staphylococcus epidermidis sensitive strains; six Staphylococcus aureus drug-resistant strains; five Staphylococcus epidermidis drug-resistant strains; four pneumococcus drug-resistant strains.
(§4) At first, tested compounds were added into 2 mL of DMSO, which could facilitate full dissolution, and then sterile double distilled water was added to a desired concentration; 20 mL MH medium in heat-melted to liquid was added to each of plates with drug solution, so that the final drug concentrations in the plates were 64, 32, 16, 8, 4, 2, 1, 0.5, 0.25, 0.125, 0.0625 and 0.031 μg/mL.
(§5) The positive control group was LZ (linezolid, trade name Zyvox, which was approved by the FDA in 2000 to be first launched in the United States and is the first and only oxazolidinone antibacterial drug permitted to be used in clinical practice at present).

[4] = test system: Staphylococcus aureus sensitive strain (5 strains); assay: MIC by agar dilution, Staphylococcus aureus sensitive strains; assay type: cell-based; conditions: 35° C., 16 hours
Description: as §2, §3, §4, §5

[5] = test system: Staphylococcus epidermidis sensitive strain (5 strains); assay: MIC by agar dilution, Staphylococcus epidermidis sensitive strains; assay type: cell-based; design: unit not given here; conditions: 35° C., 16 hours
Description: as §2, §3, §4, §5

Enterococcus (6 strains) = assay: MIC by agar dilution, Enterococcus; assay type: cell-based; conditions: 35° C., 16 hours
Description: as §2, §3, §4, §5

[6] = test system: Staphylococcus epidermidis drug-resistant strain (5 strains); assay: MIC by agar dilution, Staphylococcus epidermidis drug-resistant strains; assay type: cell-based; conditions: 35° C., 16 hours
Description: as §2, §3, §4, §5

[7] = test system: Staphylococcus aureus drug-resistant strain (6 strains); assay: MIC by agar dilution, Staphylococcus aureus drug-resistant strains; assay type: cell-based; design: unit not given here; conditions: 35° C., 16 hours
Description: as §2, §3, §4, §5

[8] = gavage 15 mg/kg, individual animals No. 1-4, 15 mg/kg
[9] = gavage 15 mg/kg, mean of 4 animals
[10] = intravenous injection 15 mg/kg, individual animals No. 5-6, 15 mg/kg
[11] = intravenous injection 15 mg/kg, mean of 2 animals
[12] = male, SD, plasma, iv, 15 mg/kg, intravenous injection 15 mg/kg, individual animals No. 5-6
[13] = male, SD, plasma, po, 15 mg/kg, gavage 15 mg/kg, individual animals No. 1-4
[14] = male, SD, plasma, po, 15 mg/kg, gavage 15 mg/kg, mean of 4 animals

CC(=O)NC[C@@H]1OC(=O)N2c3ccc(-c4ccc(C#N)nc4)cc3OC[C@@H]12 [Compound 7, N-(((3S,3aS)-7-(6-cyanopyridin-3-yl)-1-oxo-1,3,3a,4-tetrahydrobenzo[b]oxazole-[3,4-d][1,4]oxazin-3-yl)methyl)acetamide]
ED50 ([1]; MRSA): 5.53 mg/kg
ED50 ([1]; MRSA, ip): 5.92 mg/kg
in vivo activity compared with control drug LZ ([1]; mouse model infected with MRSA): significantly better than that of the control drug LZ
metabolic properties ([2]; 15 mg/kg gavage and intravenous injection): good metabolic properties
AUC0-t [2, 8]: 57191 ng·h/mL and 61593 ng·h/mL and 79448 ng·h/mL
AUC0-∞ [2, 8]: 57255 ng·h/mL and 61983 ng·h/mL and 79622 ng·h/mL
CLz [2, 8]: 3.73 mL/min/kg and 4.37 mL/min/kg and 4.03 mL/min/kg and 3.13 mL/min/kg
Cmax [2, 8]: 3958 ng/mL and 4772 ng/mL and 6269 ng/mL
MRT [2, 8]: 8.65 h and 8.79 h and 9.09 h
Tmax [2, 8]: 2.0 h and 5.0 h
Vz [2, 8]: 1.81 L/kg and 1.79 L/kg and 2.22 L/kg and 1.44 L/kg
t1/2 [2, 8]: 4.74 h and 6.36 h and 5.31 h
CLz [2, 9]: 3.82 mL/min/kg
Vz [2, 9]: 1.82 L/kg
Tmax ([2]; intravenous injection 15 mg/kg, individual animals No. 5-6): 2.0 h
AUC0-t [2, 10]: 87218 ng·h/mL
AUC0-∞ [2, 10]: 87475 ng·h/mL
CLz [2, 10]: 3.28 mL/min/kg and 2.85 mL/min/kg
MRT [2, 10]: 8.77 h
Vz [2, 10]: 1.42 L/kg
t1/2 [2, 10]: 5.72 h
AUC0-∞ [2, 11]: 81844 ng·h/mL
CLz [2, 11]: 3.07 mL/min/kg
Tmax [2, 11]: 2.0 h
t1/2 [2, 11]: 5.58 h
AUC(0-inf) [2, 12]: 76200 ng·h/mL
half-life [2, 12]: 5.44 h
AUC0-t ([2]; male, SD, plasma, iv, 15 mg/kg, intravenous injection 15 mg/kg, individual animals No. 5-6, read-out: AUC0-t): 76100 ng·h/mL
Cmax ([2]; male, SD, plasma, iv, 15 mg/kg, intravenous injection 15 mg/kg, individual animals No. 5-6, read-out: Cmax): 7510 ng/mL
MRT ([2]; male, SD, plasma, iv, 15 mg/kg, intravenous injection 15 mg/kg, individual animals No. 5-6, read-out: MRT): 7.98 h
Vd ([2]; male, SD, plasma, iv, 15 mg/kg, intravenous injection 15 mg/kg, individual animals No. 5-6, read-out: Vz): 1.55 L/kg
AUC0-t ([2]; male, SD, plasma, iv, 15 mg/kg, intravenous injection 15 mg/kg, mean of 2 animals, read-out: AUC0-t): 81600 ng·h/mL
Cmax ([2]; male, SD, plasma, iv, 15 mg/kg, intravenous injection 15 mg/kg, mean of 2 animals, read-out: Cmax): 7510 ng/mL
MRT ([2]; male, SD, plasma, iv, 15 mg/kg, intravenous injection 15 mg/kg, mean of 2 animals, read-out: MRT): 8.37 h
Vd ([2]; male, SD, plasma, iv, 15 mg/kg, intravenous injection 15 mg/kg, mean of 2 animals, read-out: Vz): 1.48 L/kg
AUC(0-inf) [2, 13]: 67100 ng·h/mL
half-life [2, 13]: 5.6 h
AUC0-t ([2]; male, SD, plasma, po, 15 mg/kg, gavage 15 mg/kg, individual animals No. 1-4, read-out: AUC0-t): 66900 ng·h/mL
Cmax ([2]; male, SD, plasma, po, 15 mg/kg, gavage 15 mg/kg, individual animals No. 1-4, read-out: Cmax): 5450 ng/mL
MRT ([2]; male, SD, plasma, po, 15 mg/kg, gavage 15 mg/kg, individual animals No. 1-4, read-out: MRT): 7.96 h
AUC(0-inf) [2, 14]: 66500 ng·h/mL
half-life [2, 14]: 5.5 h
AUC0-t ([2]; male, SD, plasma, po, 15 mg/kg, gavage 15 mg/kg, mean of 4 animals, read-out: AUC0-t): 66300 ng·h/mL
Cmax ([2]; male, SD, plasma, po, 15 mg/kg, gavage 15 mg/kg, mean of 4 animals, read-out: Cmax): 5110 ng/mL
MRT ([2]; male, SD, plasma, po, 15 mg/kg, gavage 15 mg/kg, mean of 4 animals, read-out: MRT): 8.62 h
Tmax ([2]; male, SD, plasma, po, 15 mg/kg, gavage 15 mg/kg, mean of 4 animals, read-out: Tmax): 4 h
bioavailability ([2]; male, SD, plasma, po, gavage 15 mg/kg, calculated as AUC0-t, read-out: F (absolute bioavailability)): 81.2%

N#Cc1ccc(-c2ccc3c(c2)OC[C@H]2[C@@H](Cn4ccnn4)OC(=O)N32)cn1 [Compound 49, (3R,3aS)-3-((1H-1,2,3-triazol-1-yl)methyl)-7-(6-cyanopyridin-3-yl)-3a,4-dihydrobenzo[b]oxazole[3,4-d][1,4]oxazine-1(3H)-one]
MIC, Pneumococcus drug-resistant strain (4 strains) [3]: 0.5
MIC, Staphylococcs aureus sensitive strain (5 strains) [4]: 500 µM (≈ 187 µg/mL)
MIC, Staphylococcus epidremidis sensitive strain (5 strains) [5]: 0.25
MIC, Enterococcus (6 strains) (Enterococcus (6 strains)): 500 µM (≈ 187 µg/mL)
MIC, Staphylococcus epidermidis drug-resistant strain (5 strains) [6]: 250 µM (≈ 93.6 µg/mL)
MIC, Staphylococcus aureus drug-resistant strain (6 strains) [7]: 0.25

Cn1nnnc1-c1ccc(-c2ccc3c(c2)OC[C@H]2[C@@H](Cn4ccnn4)OC(=O)N32)cn1 [Compound 51, (3R,3aS)-3-((1H-1,2,3-triazol-1-yl)methyl)-7-(6-(1-methyl-1H-tetrazol-5-yl)pyridin-3-yl)-3a,4-dihydrobenzo[b]oxazole[3,4-d][1,4]oxazine-1(3H)-one]
MIC, Pneumococcus drug-resistant strain (4 strains) [3]: 0.5
MIC, Staphylococcs aureus sensitive strain (5 strains) [4]: 250 µM (≈ 108 µg/mL)
MIC, Staphylococcus epidremidis sensitive strain (5 strains) [5]: 0.5
MIC, Enterococcus (6 strains) (Enterococcus (6 strains)): 500 µM (≈ 216 µg/mL)
MIC, Staphylococcus epidermidis drug-resistant strain (5 strains) [6]: 500 µM (≈ 216 µg/mL)
MIC, Staphylococcus aureus drug-resistant strain (6 strains) [7]: 0.5

CC(=O)NC[C@H]1CN(c2ccc(N3CCOCC3)c(F)c2)C(=O)O1 [LZ, linezolid, reference compound]
ED50 ([1]; ip, mice infected i.p. with MRSA, p.o (gavage 1 h after infection and again 4 h after first dose), deaths within seven days, read-out: ED50): 8.5 mg/kg
ED50 ([1]; mice infected i.p. with MRSA, iv 1 h after infection, deaths within seven days, read-out: ED50): 8.51 mg/kg

N(((3S,3aS)-7-(6-(4-methyl piperazin-1-yl)pyridin-3-yl)-1-oxo-1,3,3a,4-tetrahydrobenzo[b]oxazole-[3,4-d][1,4]oxazin-3-yl)methyl)acetamide [Compound 62]
MIC, Pneumococcus drug-resistant strain (4 strains) [3]: 0.5
MIC, Staphylococcs aureus sensitive strain (5 strains) [4]: 500 µM
MIC, Staphylococcus epidremidis sensitive strain (5 strains) [5]: 0.5
MIC, Enterococcus (6 strains) (Enterococcus (6 strains)): 500 µM
MIC, Staphylococcus epidermidis drug-resistant strain (5 strains) [6]: 500 µM
MIC, Staphylococcus aureus drug-resistant strain (6 strains) [7]: 0.5
